How the values were obtained:
[1] = biological target: Receptor tyrosine-protein kinase erbB-4 (Homo sapiens) (UniProt Q15303); assay: Inhibition of ERBB4 (unknown origin) assessed as residual activity at 1000 nM by KINOMEscan analysis relative to control
[2] = biological target: Casein kinase I isoform epsilon (Homo sapiens) (UniProt P49674); assay: Inhibition of CSNK1E (unknown origin) assessed as residual activity at 1000 nM by KINOMEscan analysis relative to control
[3] = biological target: T1, Dual serine/threonine and tyrosine protein kinase (Homo sapiens) (UniProt Q6XUX3); assay: Inhibition of RIPK5 (unknown origin) assessed as residual activity at 1000 nM by KINOMEscan analysis relative to control
T1 sequence (whole entry): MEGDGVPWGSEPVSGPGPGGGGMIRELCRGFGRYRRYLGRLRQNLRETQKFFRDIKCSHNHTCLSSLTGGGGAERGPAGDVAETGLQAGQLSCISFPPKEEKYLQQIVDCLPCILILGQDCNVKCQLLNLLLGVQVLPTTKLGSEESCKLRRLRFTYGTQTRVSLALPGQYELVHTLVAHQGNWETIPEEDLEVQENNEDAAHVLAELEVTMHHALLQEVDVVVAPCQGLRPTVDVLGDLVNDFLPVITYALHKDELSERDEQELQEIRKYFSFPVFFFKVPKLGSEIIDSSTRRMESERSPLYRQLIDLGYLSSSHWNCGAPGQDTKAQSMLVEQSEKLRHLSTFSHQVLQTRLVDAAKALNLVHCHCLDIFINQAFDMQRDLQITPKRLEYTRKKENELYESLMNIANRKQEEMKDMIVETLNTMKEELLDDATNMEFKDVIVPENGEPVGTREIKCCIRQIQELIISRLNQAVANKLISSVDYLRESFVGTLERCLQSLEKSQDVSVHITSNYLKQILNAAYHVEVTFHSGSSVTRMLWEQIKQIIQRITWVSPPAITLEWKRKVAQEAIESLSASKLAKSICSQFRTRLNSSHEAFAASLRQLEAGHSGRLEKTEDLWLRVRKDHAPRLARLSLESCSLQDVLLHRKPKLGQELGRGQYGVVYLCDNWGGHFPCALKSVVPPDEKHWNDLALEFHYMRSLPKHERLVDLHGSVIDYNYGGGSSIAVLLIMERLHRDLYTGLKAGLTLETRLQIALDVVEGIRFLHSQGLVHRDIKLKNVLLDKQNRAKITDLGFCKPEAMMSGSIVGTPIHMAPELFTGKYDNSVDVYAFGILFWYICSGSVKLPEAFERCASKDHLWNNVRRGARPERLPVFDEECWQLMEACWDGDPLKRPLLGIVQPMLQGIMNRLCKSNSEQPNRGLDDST

[4] = test system: Tyrosine-protein kinase ABL1 (Homo sapiens), P00519 [Q252H]; assay: Inhibition of nonphosphorylated ABL1 Q252H mutant (unknown origin) assessed as residual activity at 1000 nM by KINOMEscan analysis relative to control
[5] = biological target: Ephrin type-A receptor 2 (Homo sapiens) (UniProt P29317); assay: Inhibition of EPHA2 (unknown origin) assessed as residual activity at 1000 nM by KINOMEscan analysis relative to control
[6] = biological target: Epidermal growth factor receptor (Homo sapiens, UniProt P00533); assay: Inhibition of human EGFR using biotin-aminohexyl-AEEEEYFELVAKKK as substrate preincubated for 15 mins followed by substrate/ATP addition measured after 20 mins by FRET assay
[7] = biological target: Peripheral plasma membrane protein CASK (Homo sapiens) (UniProt O14936); assay: Inhibition of CASK (unknown origin) assessed as residual activity at 1000 nM by KINOMEscan analysis relative to control
[8] = biological target: Son of sevenless homolog 2 (Homo sapiens, UniProt Q07890); assay: Inhibition of N-terminal His10-tagged wild-type recombinant human SOS2 catalytic domain (564 to 1043 residues) expressed in Escherichia coli assessed as reduction in KRAS G12C mutant activation preincubated for 10 mins with KRAS followed by SOS2 addition measured after 30 mins in presence of EDA-GTP-DY-647P1 by HTRF analysis
MOLM-13 = assay: Antiproliferative activity against human MOLM-13 cells assessed as inhibition of cell viability incubated for 72 hrs by Cell Titer Glo assay; format: functional, cell-based; settings: MOLM-13, 72 h
[9] = biological target: T2, Guanine nucleotide exchange factor DBS (Homo sapiens, UniProt O15068); assay: Inhibition of human DBS assessed as reduction in CDC42 activation preincubated for 1 min with CDC42 followed by DBS addition measured after 20 mins in presence of EDA-GTP-DY-647P1 by HTRF analysis
T2 sequence (O15068 whole entry): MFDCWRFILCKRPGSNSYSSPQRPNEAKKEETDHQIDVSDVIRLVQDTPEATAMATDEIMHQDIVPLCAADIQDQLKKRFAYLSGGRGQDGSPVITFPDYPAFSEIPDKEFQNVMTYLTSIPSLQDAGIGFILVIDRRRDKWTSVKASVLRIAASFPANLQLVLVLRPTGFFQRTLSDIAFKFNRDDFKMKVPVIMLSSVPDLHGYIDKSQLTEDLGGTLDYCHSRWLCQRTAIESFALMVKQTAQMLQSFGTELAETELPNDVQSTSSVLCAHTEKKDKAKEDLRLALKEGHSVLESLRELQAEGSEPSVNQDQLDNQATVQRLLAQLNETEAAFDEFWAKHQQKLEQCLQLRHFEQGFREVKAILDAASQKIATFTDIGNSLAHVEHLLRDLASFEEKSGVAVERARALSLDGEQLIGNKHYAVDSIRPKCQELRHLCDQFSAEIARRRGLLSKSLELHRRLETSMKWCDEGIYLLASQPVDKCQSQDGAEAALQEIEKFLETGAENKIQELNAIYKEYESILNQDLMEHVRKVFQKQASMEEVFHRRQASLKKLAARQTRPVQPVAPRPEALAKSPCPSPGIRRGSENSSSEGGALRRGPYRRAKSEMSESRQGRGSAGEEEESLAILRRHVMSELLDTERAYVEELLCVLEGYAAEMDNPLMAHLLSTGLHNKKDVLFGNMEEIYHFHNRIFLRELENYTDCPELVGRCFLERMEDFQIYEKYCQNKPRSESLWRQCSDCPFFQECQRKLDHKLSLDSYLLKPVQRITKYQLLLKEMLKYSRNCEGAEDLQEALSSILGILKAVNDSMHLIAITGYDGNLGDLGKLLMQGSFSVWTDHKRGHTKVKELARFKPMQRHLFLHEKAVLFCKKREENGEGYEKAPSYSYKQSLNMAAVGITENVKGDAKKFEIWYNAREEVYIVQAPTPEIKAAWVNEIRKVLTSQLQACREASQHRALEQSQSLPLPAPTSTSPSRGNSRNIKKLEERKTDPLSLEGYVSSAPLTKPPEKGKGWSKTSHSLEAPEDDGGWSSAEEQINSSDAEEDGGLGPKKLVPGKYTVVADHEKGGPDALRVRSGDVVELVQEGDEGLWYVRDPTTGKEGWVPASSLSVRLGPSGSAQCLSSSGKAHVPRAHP

[10] = biological target: Receptor tyrosine-protein kinase erbB-2 (Homo sapiens) (UniProt P04626); assay: Inhibition of ERBB2 (unknown origin) assessed as residual activity at 1000 nM by KINOMEscan analysis relative to control
Chain of Receptor tyrosine-protein kinase erbB-2 (Homo sapiens) (P04626 whole entry): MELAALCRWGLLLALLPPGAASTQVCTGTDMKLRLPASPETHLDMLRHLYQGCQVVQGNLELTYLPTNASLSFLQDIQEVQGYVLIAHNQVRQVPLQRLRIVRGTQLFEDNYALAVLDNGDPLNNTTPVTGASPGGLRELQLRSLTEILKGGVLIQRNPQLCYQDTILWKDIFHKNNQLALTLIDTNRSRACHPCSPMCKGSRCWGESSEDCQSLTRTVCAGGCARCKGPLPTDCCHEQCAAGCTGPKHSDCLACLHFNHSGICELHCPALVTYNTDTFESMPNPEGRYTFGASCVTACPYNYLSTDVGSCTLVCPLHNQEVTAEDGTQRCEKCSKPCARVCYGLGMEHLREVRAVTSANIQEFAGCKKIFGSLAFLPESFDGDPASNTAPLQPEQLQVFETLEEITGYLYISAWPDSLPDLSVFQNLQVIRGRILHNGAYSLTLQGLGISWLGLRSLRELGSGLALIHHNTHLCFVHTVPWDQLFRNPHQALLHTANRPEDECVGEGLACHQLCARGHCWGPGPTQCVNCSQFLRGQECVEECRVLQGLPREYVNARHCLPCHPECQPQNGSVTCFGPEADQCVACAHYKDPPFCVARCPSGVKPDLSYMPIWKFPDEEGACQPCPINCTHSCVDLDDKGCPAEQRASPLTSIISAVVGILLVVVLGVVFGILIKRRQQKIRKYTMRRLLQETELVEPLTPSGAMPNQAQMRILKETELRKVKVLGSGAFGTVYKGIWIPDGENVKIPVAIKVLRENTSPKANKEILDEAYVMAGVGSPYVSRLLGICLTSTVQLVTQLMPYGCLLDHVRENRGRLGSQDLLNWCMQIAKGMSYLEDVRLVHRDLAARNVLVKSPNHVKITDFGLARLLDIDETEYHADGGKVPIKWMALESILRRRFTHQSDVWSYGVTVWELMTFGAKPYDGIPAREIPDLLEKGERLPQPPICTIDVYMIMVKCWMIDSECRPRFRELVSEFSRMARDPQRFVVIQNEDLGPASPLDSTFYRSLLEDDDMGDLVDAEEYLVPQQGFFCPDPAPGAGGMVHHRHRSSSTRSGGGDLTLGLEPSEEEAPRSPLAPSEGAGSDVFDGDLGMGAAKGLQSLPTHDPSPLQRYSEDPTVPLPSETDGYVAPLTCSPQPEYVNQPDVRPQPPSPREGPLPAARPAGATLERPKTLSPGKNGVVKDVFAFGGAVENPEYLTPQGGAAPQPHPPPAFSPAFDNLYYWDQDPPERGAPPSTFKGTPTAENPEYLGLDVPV

Chain of Son of sevenless homolog 2 (Q07890 whole entry, looked up, stated change not applied, the tested form may be a part): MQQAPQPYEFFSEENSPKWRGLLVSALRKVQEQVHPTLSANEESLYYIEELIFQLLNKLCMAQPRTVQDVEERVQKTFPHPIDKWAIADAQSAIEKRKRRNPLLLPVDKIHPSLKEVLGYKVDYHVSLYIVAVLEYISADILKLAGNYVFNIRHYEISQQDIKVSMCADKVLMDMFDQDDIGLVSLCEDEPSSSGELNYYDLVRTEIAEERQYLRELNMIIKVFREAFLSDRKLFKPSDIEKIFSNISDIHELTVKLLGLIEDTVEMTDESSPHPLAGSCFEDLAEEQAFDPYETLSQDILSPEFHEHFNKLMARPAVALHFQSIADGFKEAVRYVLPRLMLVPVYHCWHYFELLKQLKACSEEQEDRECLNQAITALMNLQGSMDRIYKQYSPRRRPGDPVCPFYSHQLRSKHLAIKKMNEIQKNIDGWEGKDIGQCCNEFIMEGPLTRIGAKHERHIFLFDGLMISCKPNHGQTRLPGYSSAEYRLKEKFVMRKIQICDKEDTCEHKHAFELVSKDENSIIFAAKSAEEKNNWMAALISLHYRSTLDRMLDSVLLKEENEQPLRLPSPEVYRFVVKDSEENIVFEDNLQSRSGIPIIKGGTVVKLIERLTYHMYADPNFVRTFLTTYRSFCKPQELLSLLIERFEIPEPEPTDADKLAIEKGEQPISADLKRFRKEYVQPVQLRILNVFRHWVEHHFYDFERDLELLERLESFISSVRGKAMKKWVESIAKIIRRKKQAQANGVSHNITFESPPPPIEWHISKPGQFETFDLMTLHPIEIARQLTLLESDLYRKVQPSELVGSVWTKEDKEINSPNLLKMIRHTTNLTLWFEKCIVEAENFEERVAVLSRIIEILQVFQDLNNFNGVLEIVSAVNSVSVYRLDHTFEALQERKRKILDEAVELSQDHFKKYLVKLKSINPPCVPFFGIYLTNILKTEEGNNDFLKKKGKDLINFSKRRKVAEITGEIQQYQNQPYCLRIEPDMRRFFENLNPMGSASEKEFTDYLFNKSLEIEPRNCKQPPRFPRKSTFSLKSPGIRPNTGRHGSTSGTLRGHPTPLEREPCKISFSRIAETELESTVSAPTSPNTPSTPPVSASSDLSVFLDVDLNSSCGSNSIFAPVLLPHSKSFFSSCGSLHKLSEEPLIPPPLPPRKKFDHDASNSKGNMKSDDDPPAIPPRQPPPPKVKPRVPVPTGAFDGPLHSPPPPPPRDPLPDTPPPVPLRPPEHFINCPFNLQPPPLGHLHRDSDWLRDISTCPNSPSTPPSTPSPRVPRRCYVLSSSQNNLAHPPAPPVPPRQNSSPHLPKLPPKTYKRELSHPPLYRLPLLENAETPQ
Chain of Epidermal growth factor receptor (P00533 whole entry): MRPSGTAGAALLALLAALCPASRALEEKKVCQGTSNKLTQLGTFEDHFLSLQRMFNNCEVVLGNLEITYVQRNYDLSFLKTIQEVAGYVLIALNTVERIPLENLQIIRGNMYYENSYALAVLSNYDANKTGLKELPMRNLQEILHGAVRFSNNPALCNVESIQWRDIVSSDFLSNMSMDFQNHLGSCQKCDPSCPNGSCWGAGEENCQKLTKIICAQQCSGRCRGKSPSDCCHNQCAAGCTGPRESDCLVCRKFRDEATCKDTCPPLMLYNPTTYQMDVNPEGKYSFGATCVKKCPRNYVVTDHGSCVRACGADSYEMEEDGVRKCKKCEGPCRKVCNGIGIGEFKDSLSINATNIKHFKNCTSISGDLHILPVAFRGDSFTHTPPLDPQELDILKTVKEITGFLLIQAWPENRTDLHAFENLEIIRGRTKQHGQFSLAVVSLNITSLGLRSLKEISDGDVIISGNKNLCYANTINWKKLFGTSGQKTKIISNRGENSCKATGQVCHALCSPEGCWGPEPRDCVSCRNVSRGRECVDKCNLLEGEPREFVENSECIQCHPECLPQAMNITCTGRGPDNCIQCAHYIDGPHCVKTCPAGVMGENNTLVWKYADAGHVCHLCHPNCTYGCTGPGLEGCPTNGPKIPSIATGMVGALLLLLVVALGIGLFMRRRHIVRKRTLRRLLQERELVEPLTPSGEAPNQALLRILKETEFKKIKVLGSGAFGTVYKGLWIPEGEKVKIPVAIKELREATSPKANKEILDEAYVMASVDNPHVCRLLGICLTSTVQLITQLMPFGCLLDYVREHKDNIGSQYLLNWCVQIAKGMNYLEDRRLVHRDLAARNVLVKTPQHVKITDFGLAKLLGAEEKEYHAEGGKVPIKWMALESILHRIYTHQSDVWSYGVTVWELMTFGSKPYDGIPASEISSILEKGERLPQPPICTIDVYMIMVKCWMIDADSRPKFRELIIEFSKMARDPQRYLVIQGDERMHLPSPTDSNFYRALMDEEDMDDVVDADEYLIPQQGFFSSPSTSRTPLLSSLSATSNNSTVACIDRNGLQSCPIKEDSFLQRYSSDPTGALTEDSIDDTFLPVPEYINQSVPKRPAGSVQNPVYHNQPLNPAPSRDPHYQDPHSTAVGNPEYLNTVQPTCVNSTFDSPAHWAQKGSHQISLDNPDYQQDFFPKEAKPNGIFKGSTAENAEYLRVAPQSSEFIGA
Chain of Peripheral plasma membrane protein CASK (Homo sapiens) (O14936 whole entry, looked up, the tested form may be a part): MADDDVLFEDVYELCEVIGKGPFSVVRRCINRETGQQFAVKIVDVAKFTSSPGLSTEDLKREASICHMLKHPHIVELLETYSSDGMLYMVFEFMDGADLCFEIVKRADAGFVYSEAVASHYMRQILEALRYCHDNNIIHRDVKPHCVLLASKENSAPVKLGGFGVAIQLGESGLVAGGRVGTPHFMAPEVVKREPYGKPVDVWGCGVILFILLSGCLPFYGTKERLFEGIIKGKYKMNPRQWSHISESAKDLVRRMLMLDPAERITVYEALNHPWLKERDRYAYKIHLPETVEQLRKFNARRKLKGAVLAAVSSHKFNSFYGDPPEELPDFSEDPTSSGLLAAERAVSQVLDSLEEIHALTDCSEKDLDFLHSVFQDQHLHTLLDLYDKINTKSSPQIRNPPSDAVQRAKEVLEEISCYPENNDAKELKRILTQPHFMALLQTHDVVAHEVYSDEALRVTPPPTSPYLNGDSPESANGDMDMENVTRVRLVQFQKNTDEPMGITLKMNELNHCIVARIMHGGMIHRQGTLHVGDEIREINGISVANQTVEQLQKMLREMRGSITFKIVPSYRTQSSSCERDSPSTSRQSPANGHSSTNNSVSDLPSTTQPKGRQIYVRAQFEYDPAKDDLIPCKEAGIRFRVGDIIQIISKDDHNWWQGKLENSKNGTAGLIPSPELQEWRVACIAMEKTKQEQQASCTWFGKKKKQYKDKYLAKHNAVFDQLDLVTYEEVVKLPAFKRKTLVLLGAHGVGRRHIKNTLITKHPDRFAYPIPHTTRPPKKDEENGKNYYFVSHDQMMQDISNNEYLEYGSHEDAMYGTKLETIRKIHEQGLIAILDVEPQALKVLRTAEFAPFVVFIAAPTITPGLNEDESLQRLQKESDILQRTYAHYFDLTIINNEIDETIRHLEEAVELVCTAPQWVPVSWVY

Row | Structure (SMILES) | Activity [1] | Activity [2] | Activity [3] | Activity [4] | Activity [5] | IC50 [6] | Activity [7] | IC50 [8] | IC50 (MOLM-13) | IC50 [9] | Activity [10]
1 | COc1cc2ncnc(N[C@H](C)c3cccc4ccccc34)c2cc1OC | 46% | 100% | 86% | 100% | 94% | 0.58 µM | 72% | > 20 µM | 2.53 µM | > 20 µM | 26%
2 | CNCc1ccccc1-c1csc([C@@H](C)Nc2nc(C)nc3cc(OC)c(OC)cc23)c1 [BAY-293] |  |  |  |  |  | > 20 µM |  | > 20 µM | 0.995 µM | > 20 µM | 
3 | COc1cc2nc(C)nc(N[C@H](C)c3cccc(-c4cn[nH]c4)c3)c2cc1OC | 89% | 97% | 77% | 45% | 45% | > 20 µM | 78% | > 20 µM | 3.54 µM | > 20 µM | 76%

From ChEMBL document CHEMBL5678818, “Discovery of potent SOS1 inhibitors that block RAS activation via disruption of the RAS-SOS1 interaction” (Proc Natl Acad Sci U S A, 2019)
